Results on four molecules are retold here after article PMC7581251 (ACS Omega, 2020).

For data set [1], the target named is T1, GSK3β (Homo sapiens, UniProt P49841). In words: Promega ADP-Glo kinase assay, GSK3β inhibition. It counts as biochemical. The settings on record: for IC50: IC50 GSK3β (ADP-Glo), 10-point three-fold dilution from 100 μM, n = 2; for Hill slope GSK3β (ADP-Glo): four-parameter non-linear regression; for inhibition at 100 µM: read-out: Percent Inhibition of GSK3β, 100 μM, single point, n = 3. On the technique in general: In ADP-Glo the light output rises with the ADP produced.

Data set [2] addresses T1, GSK3β. Briefly: Z'LYTE kinase assay. The note with it: for Hill slope GSK3β (Z'LYTE): four-parameter non-linear regression. It counts as biochemical.
For data set [3], the target named is T2, GSK3α (Homo sapiens, UniProt P49840). Briefly: Z'LYTE kinase assay. It counts as biochemical. The note with it: for IC50: IC50 GSK3α (Z'LYTE), values of main text and Table S3; for Selectivity GSK3β versus GSK3α: from Z'LYTE IC50 values.
The conditions of data set [4]: cohort of diabetic individuals ref 74; cited from earlier work.
For a further data set, the system named is CYP2D6. The settings on record: in vitro ref 75; cited from earlier work.
In data set [5] the target is T2, GSK3α. The note with it: cited from earlier work.
Another data set deals with GSKβ. The settings on record: cited from earlier work.

T2 sequence (P49840 whole entry): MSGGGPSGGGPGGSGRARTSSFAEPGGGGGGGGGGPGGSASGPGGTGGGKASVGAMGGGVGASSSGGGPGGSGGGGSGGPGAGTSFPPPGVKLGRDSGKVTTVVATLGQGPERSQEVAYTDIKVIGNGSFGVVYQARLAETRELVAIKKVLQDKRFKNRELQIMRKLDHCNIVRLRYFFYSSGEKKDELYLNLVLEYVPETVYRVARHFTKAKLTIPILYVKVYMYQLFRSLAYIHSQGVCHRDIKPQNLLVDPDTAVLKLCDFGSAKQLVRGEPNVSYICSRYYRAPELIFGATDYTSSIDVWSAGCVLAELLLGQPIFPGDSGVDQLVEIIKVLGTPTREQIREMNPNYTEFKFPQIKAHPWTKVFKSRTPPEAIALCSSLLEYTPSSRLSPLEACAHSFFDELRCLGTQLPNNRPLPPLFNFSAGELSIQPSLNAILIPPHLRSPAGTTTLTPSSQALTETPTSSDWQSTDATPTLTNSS
T1 sequence (P49841 whole entry): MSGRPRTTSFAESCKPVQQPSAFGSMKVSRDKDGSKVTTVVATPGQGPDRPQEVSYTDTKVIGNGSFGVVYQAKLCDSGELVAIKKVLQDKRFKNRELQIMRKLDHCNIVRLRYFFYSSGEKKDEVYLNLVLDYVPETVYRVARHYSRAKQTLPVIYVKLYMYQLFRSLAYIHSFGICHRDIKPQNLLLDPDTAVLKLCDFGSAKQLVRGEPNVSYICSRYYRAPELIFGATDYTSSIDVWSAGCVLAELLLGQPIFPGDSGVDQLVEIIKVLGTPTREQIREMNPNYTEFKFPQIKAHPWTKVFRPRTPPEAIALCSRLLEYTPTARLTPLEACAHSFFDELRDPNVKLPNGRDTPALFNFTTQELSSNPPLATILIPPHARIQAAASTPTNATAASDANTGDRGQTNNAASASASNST

In general, IC50 refers to the concentration needed to halve the response being measured. Low readings indicate greater potency, high ones weaker potency. What is called inhibition is the share of the control response that was lost under treatment. On to `CC(=O)Nc1ncc([N+](=O)[O-])s1` [Nithiamide], for which, at GSK3β [1], the IC50 stood at 8.5 µM, the “Hill slope GSK3β (ADP-Glo)” value was −0.80 and the inhibition at 100 µM is above 70%. For the same molecule, at GSK3β [2], the IC50 was found to be 5 µM and the “Hill slope GSK3β (Z'LYTE)” value was found to be 1.26. For the same molecule, at GSK3α [3], half-maximal inhibition (IC50) required 4.4 µM and the “Selectivity GSK3β versus GSK3α” value is listed as “non-selective”.
Take `c1ccc2[nH]c(-c3cscn3)nc2c1` [Thiabendazole]: on GSK3β [1], the 50% inhibitory concentration (IC50) was determined as 12.1 µM, the “Hill slope GSK3β (ADP-Glo)” value was −0.68 and the inhibition at 100 µM was above 70%. Further, at GSK3β [2], half-maximal inhibition (IC50) required 54.8 µM and the “Hill slope GSK3β (Z'LYTE)” value turned out to be 1.10. In addition, on GSK3α [3], the midpoint of inhibition, the IC50, lay at 60.8 µM and the “Selectivity GSK3β versus GSK3α” value was “non-selective”.
`COC(=O)C1=C(C)NC(C)=C(C(=O)OC)C1c1ccccc1[N+](=O)[O-]` [Nifedipine]: the inhibition at 100 µM on GSK3β [1] is 69%.
For `CN(C)C[C@@H]1CCn2cc(c3ccccc32)C2=C(C(=O)NC2=O)c2cn(c3ccccc23)CCO1` [Ruboxistaurin], on GSK3β [1], the “Hill slope GSK3β (ADP-Glo)” value is reported as −0.68 and the inhibition at 100 µM is 96%. Also, on GSK3β [2], the “Hill slope GSK3β (Z'LYTE)” value amounted to 0.98. The Clinical safety result in data set [4] is recorded as “safe up to 32 mg/day for 4 years”. Moreover, the “Interaction with CYP2D6” value in the data set on CYP2D6 is reported as “potent interactions”. For the same molecule, the “Activity for GSK3α in published kinase screening” value at GSK3α [5] is reported as “micromolar activity”. Also, the “Activity for GSKβ in published kinase screening” value in the data set on GSKβ is “micromolar activity”.
